# Test results published in US20130205449A1, “Methods and Compositions for Production of Triploid Sterile Plants” (University of Connecticut, priority 2011, published 2013).
# Legend:
# Type in all cases: cell-based, Euonymus alatus
# [1] = system: immature endosperm-derived calli of E. alatus ‘Compactus’; assay: Shoot bud induction from immature endosperm-derived calli; settings: zeatin at 9.13 or 18.26 μM, kinetin at 9.30 or 18.60 μM, in the presence of 0.49 μM IBA
# Description: (§1) Except for rooting, all the media described herein were composed of MS salts (Murashige and Skoog, 1962) with 100 mg/L myo-inositol, 2.0 mg/L glycine, 1.0 mg/L thiamine-HCl, 0.5 mg/L nicotinic acid, 0.5 mg/L pyridoxine-HCl, 0.3 g/L casein hydrolysate, 0.5 g/L 2-(Nmorpholino) ethanesulfonic acid, 30.0 g/L sucrose, and 7.0 g/L agar. The pH of all culture media was adjusted to 5.8 with KOH or HCl before addition of agar. All media were autoclaved at 121° C. for 20 minutes, and all the cultures, except for those specifically mentioned, were maintained at 23±2° C. under 35 to 45 μmol/m^2s light provided by white cool fluorescent tube lamps over a 16-hour photoperiod.
# After 12 weeks of culture, compact, greenish calli formed on six callus induction media supplemented with 2.22, 4.44, or 8.88 μM BA and 2.69 or 5.38 μM NAA were cut into pieces (approximately 0.5 cm×0.5 cm in size) and transferred to the petri dishes containing shoot induction media supplemented with 4.44 or 13.32 μM BA, 9.13 or 18.26 μM zeatin, and 9.30 or 18.60 μM kinetin plus 0.49 μM IBA or 0.57 μM indole-3-acetic acid (IAA). Callus segments also were cultured on hormone free MS medium as a control. […] Bud (shoot bud) formation was recorded at Week 8 of culture. Bud induction rates were calculated by dividing the number of calli forming shoot buds by the number of calli cultured. […]
# [2] = system: shoots from embryo or endosperm-derived calli; assay: Rooting of regenerated shoots
# Description: After shoot buds were formed from embryo or endosperm-derived calli, they were transferred together with their callus explants into Magenta boxes containing the MS medium supplemented with 4.44 μM BA and 0.49 μM IBA for further growth. When the shoots grew to 1 to 2 cm in height, they were excised from callus tissues and cultured on root induction Medium I, which included half strength WPM (Lloyd and McCown, 1980, Proc. Intl. Plant Prop. Soc., 30:421-427) with 2% sucrose, 0.04% ammonium nitrate, 0.4% agar, 0.14% phytagel (a blended agar and phytagel medium was used to produce a totally transparent medium so that initiation and growth of roots could be easily monitored), and 4.9 μM IBA (Clements, 2007, In vitro induction of polyploidy, rooting, and overcoming the dormancy limitations of Euonymus alatus ‘Compactus,” MS Thesis, Univ. of. Conn., p. 536)). Two weeks later, the shoots were transferred onto rooting Medium II (Clements, 2007), which was IBA-free rooting Medium I with 2 g/L activated charcoal (Kang et al., 2009). The pH of the rooting media was adjusted to 5.2 with KOH or HCl before the addition of gelling agents. The root cultures were transferred to fresh medium every four weeks. […]
# [3] = system: E. alatus ‘Compactus’ immature endosperm explants; assay: Callus induction from immature endosperm explants; settings: in combination with the same concentration of BA
# Description: as §1
# Endosperm tissues with seedcoats and embryos completely removed were used for triploid callus induction (FIG. 1A). […]
# Seed coats and embryos were removed, and the immature endosperm explants were cultured in disposable petri dishes (90×20 mm) containing MS medium supplemented with different combinations of four concentrations of BA (2.22, 4.44, 8.88, and 17.76 μM), three concentrations of NAA (2.69, 5.38, and 10.76 μM), and two concentrations of 2,4-dichlorophenoxy-acetic acid (2,4-D) (2.26 and 9.04 μM) to induce callus formation. […] Callus formation data were recorded at Week 12 of culture, and mean number of immature endosperm explants forming calli was calculated based on three replicates for each treatment. […]
compound,measurement,setting,value
C/C(=C\CNc1ncnc2[nH]cnc12)CO [zeatin],Bud formation,[1],failed to induce bud formation
"O=C(O)CCCc1c[nH]c2ccccc12 [IBA, indole-3-butyric acid]",Shoots developed into healthy plants with well-developed roots,"[2]; Medium I with 4.9 μM IBA two weeks, then IBA-free Medium II with 2 g/L activated charcoal, within 10 weeks of culture",85%
same,Shoots rooted,"[2]; WPM with 4.9 μM IBA for two weeks, then hormone-free WPM with 2.0 g/L activated charcoal for four weeks",Eighty five percent
"O=C(O)COc1ccc(Cl)cc1Cl [2,4-D, 2,4-dichlorophenoxy-acetic acid]",Effectiveness in callus induction compared with NAA,[3],less effective in callus induction than NAA
c1coc(CNc2ncnc3[nH]cnc23)c1 [kinetin],Bud formation,[1],failed to induce bud formation
